Measurements from patent US8541617B2, “Cycloalkylphenyl substituted cyclic ketoenols” (Bayer Cropscience AG, priority 2006, dated 2013).

Assays:
Summer barley = test: Example C: Herbicidal post-emergence action, use of safeners (crop plant damage); type: in vivo; settings: for Summer barley observed (%): no safener; for Summer barley observed (%), 10 days after application / Summer barley observed (%), 28 days after application: greenhouse container trial;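 on Summer barley observed (%), 10 days after application: 100% means plants died and 0% means like untreated controls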;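 on Summer barley observed (%), 28 days after application: 100% means plants died and 0% means like untreated controls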
Procedure: (§1) Herbicidal Post-Emergence Action
(§2) Seeds of monocotylos and dicotylos weed and crop plants are placed into sandy lawn in wood fibre pots or in plastic pots, covered with soil and cultivated in a greenhouse, during the vegetation period also outdoors outside of the greenhouse, under good growth conditions. Two to three weeks after sowing, the test plants are treated at the one- to three-leaf stage. The test compounds, formulated as wettable powders (WP) or liquid (EC), are, in the various dosages at a water application rate of 300 l/ha (converted), with wetting agent (0.2 to 0.3%) added, sprayed onto the plants and the surface of the soil. […]
(§3) If it is additionally to be tested as to whether safeners can improve the plant compatibility of test substances in the case of crop plants, the following options are used for applying the safener: • seeds of the crop plants are, before sowing, dressed with safener substance (the amount of safener stated in percent, based on the weight of the seed) • before the application of the test substances, the crop plants are sprayed with the safener at a certain application rate per hectare (usually 1 day before the application of the test substances) • the safener is applied together with the test substance as a tank mix (the amount of safener is stated in g/ha or as a ratio, based on the herbicide).
(§4) By comparing the effect of test substances on crop plants without or with safener treatment, it is possible to assess the effect of the safener substance.
(§5) Container trials in the greenhouse, treatment with safener 1 day prior to herbicide application

Summer wheat = test: as above; type: in vivo; settings: for Summer wheat observed (%): no safener; for Summer wheat observed (%), 10 days after application / Summer wheat observed (%), 28 days after application: greenhouse container trial
Procedure: as §1, §2, §3, §4, §5

[1] = logP determination by HPLC on a reverse-phase column (C 18), EEC Directive 79/831 Annex V.A8; type: physicochemical; settings: HPLC reverse-phase C 18, 43° C., acidic range (pH 2.3), 0.1% aqueous phosphoric acid/acetonitrile; for chromatographic logP: reverse-phase HPLC column (C 18)
Procedure: The logP values given in the table were determined in accordance with EEC Directive 79/831 Annex V.A8 by HPLC (High Performance Liquid Chromatography) on a reverse-phase column (C 18). Temperature: 43° C.
Mobile phases for the determination in the acidic range (pH 2.3): 0.1% aqueous phosphoric acid, acetonitrile; linear gradient from 10% acetonitrile to 90% acetonitrile.
Calibration was carried out using unbranched alkan-2-ones (having 3 to 16 carbon atoms) with known logP values (determination of the logP values by retention times using linear interpolation between two successive alkanones).

[2] = test system: cotton aphid (Aphis gossypii); test: Example N: Aphis gossypii test, with ammonium/phosphonium salts and penetrants; type: in vivo; settings: 20 ppm
Procedure: (§6) Solvent: 7 parts by weight of dimethylformamide
(§7) Emulsifier: 2 parts by weight of alkylaryl polyglycol ether
(§8) To produce a suitable preparation of active compound, 1 part by weight of active compound is mixed with the stated amounts of solvent and emulsifier and the concentrate is diluted with emulsifier-containing water to the desired concentration. For the application with penetrants (rapeseed oil methyl ester 500 EW), ammonium or phosphonium salts or ammonium salts and penetrants (rapeseed oil methyl ester 500 EW), these are in each case added in a concentration of 1000 ppm to the spray liquor.
Cotton plants (Gossypium hirsutum) which are heavily infested by the cotton aphid (Aphis gossypii) are treated by being sprayed to run off point with the preparation of active compound at the desired concentration.
After the desired period of time, the kill in % is determined. 100% means that all aphids have been killed; 0% means that none of the aphids have been killed.
(§9) In this test, for example, the following compounds of the Preparation Examples show good efficacy: see table

[3] = test system: green peach aphid (Myzus persicae); test: Example M: Myzus persicae test, activity increase by ammonium/phosphonium salts in combination with penetrants; type: in vivo; settings: for Kill (%) after 6 d +AS 1000 ppm: + ammonium sulphate 1000 ppm; for Kill (%) after 6 d +RME 1000 ppm: + rapeseed oil methyl ester 1000 ppm; for Kill (%) after 6 d: no additive
Procedure: Activity Increase by Ammonia/Phosphonium Salts in Combination with Penetrants
as §6, §7, §8
Paprika plants (Capsicum annuum) which are heavily infested by the green peach aphid (Myzus persicae) are treated by being sprayed to run off point with the preparation of active compound at the desired concentration.
After the desired period of time, the kill in % is determined. 100% means that all animals have been killed; 0% means that none of the animals have been killed.
as §9

[4] = Excerpt: Use was made of leaves which, fully developed, were cut from apple trees of the cultivar golden delicious.
Only the cuticles, free from hairs and stoma, of the upper sides of the leaves were then used. They were washed repeatedly alternating with water and a buffer solution of pH 7. The clean cuticles obtained were then mounted on Teflon plates and smoothed and dried with a gentle stream of air.
In the next step, the cuticle membranes obtained in this manner were placed into stainless steel diffusion cells (=transport chambers) for membrane transport studies. […] The arrangement was chosen such that the morphological outside of the cuticles was facing outwards, i.e. exposed to air, whereas the original inside was facing the interior of the diffusion cells.
The diffusion cells were filled with a 30% strength ethylene glycol/water solution. To determine the penetration, in each case 10 μl of the spray liquor of the composition below were applied to the outside of the cuticles. The spray liquor was prepared using local tap water of medium hardness.
After the spray liquors had been applied, the water was allowed to evaporate and the chambers were inverted and placed into thermostated taps in which temperature and atmospheric humidity over the cuticles could be adjusted using a gentle stream of air onto the cuticles with the spray coating (20° C., 60% rh).

[5] = 10 days after application, 12.5 g of a.i./ha
[6] = 10 days after application, 25 g of a.i./ha
[7] = 10 days after application, 50 g of a.i./ha
[8] = 10 days after application, 100 g of a.i./ha
[9] = 28 days after application, 50 g of a.i./ha
[10] = 28 days after application, 100 g of a.i./ha
[11] = 28 days after application, 12.5 g of a.i./ha
[12] = 28 days after application, 25 g of a.i./ha
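Wherever Summer wheat observed (%), 10 days after application is given: 100% means plants died and 0% means like untreated controls.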
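Wherever Summer wheat observed (%), 28 days after application is given: 100% means plants died and 0% means like untreated controls.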

CCOC(=O)OC1=C(c2c(C)cc(C)cc2C2CC2)C(=O)NC12CCC(OC)CC2 (single isomer, unassigned) [Example I-1-c-7]
Summer barley observed (%) (Summer barley; [5]): 10%
Summer barley observed (%) (Summer barley; [6]): 40%
Summer barley observed (%) (Summer barley; [7]): 60%
Summer barley observed (%) (Summer barley; [8]): 90%
Summer barley observed (%) (Summer barley; [9]): 50%
Summer barley observed (%) (Summer barley; [10]): 95%
Summer wheat observed (%) (Summer wheat; [5]): 20%
Summer wheat observed (%) (Summer wheat; [6]): 60%
Summer wheat observed (%) (Summer wheat; [11]): 10%
Summer wheat observed (%) (Summer wheat; [12]): 20%
Summer wheat observed (%) (Summer wheat; [9]): 80%

COC1CCC2(CC1)OC(=O)C(c1c(C)cc(C3CC3)cc1C)=C2O (single isomer, unassigned) [Example I-2-a-3]
logP [1]: 2.64

COC1CCC2(CC1)OC(=O)C(c1c(C)cc(C3CC3)cc1C)=C2O (single isomer, unassigned) [Example I-2-a-4]
logP [1]: 2.88

CCc1cc(C)cc(C2CC2)c1C1=C(O)C(C)(C)NC1=O [Example I-1-a-5]
Summer barley observed (%), 10 days after application (Summer barley; 12.5 g of a.i./ha): 50%
Summer barley observed (%), 28 days after application (Summer barley; 12.5 g of a.i./ha): 15%
Summer barley observed (%), 10 days after application (Summer barley; 25 g of a.i./ha): 70%
Summer barley observed (%), 28 days after application (Summer barley; 25 g of a.i./ha): 25%
Summer barley observed (%), 10 days after application (Summer barley; 50 g of a.i./ha): 80%
Summer barley observed (%), 28 days after application (Summer barley; 50 g of a.i./ha): 40%
Summer wheat observed (%), 10 days after application (Summer wheat; 6.25 g of a.i./ha): 50%
Summer wheat observed (%), 28 days after application (Summer wheat; 6.25 g of a.i./ha): 10%
Summer wheat observed (%), 10 days after application (Summer wheat; 12.5 g of a.i./ha): 60%
Summer wheat observed (%), 28 days after application (Summer wheat; 12.5 g of a.i./ha): 40%
Summer wheat observed (%), 10 days after application (Summer wheat; 25 g of a.i./ha): 70%
Summer wheat observed (%), 28 days after application (Summer wheat; 25 g of a.i./ha): 60%
Summer wheat observed (%), 10 days after application (Summer wheat; 50 g of a.i./ha): 70%
Summer wheat observed (%), 28 days after application (Summer wheat; 50 g of a.i./ha): 75%

COC1CCC2(CC1)NC(=O)C(c1c(C)cc(C)cc1C1CC1)=C2O (stereo not shown) [Example I-1-a-7]
Summer barley observed (%) (Summer barley; [5]): 10%
Summer barley observed (%) (Summer barley; [6]): 50%
Summer barley observed (%) (Summer barley; [7]): 60%
Summer wheat observed (%) (Summer wheat; [11]): 30%
Summer wheat observed (%) (Summer wheat; [12]): 60%
Summer wheat observed (%) (Summer wheat; [9]): 70%
Summer wheat observed (%) (Summer wheat; [10]): 80%
Kill (%) after 6 d +AS + RME in each case 1000 ppm ([2]; + AS + RME in each case 1000 ppm): 99%
Kill (%) after 6 d +AS 1000 ppm ([2]; + ammonium sulphate 1000 ppm): 65%
Kill (%) after 6 d +RME 1000 ppm ([2]; + rapeseed oil methyl ester 1000 ppm): 75%
Kill (%) after 6 d ([2]; no additive): 55%

Cc1cc(C)c(C2=C(O)C(C)(C)NC2=O)c(C2CC2)c1 [Example I-1-a-8]
Summer wheat observed (%) (Summer wheat; [6]): 25%
Summer wheat observed (%) (Summer wheat; [7]): 30%
Summer wheat observed (%) (Summer wheat; [8]): 30%

CCOC1CCCC2(CC1)NC(=O)C(c1c(C)cc(C)cc1C1CC1)=C2O (stereo not shown) [Example I-1-a-9]
Summer wheat observed (%) (Summer wheat; [5]): 60%
Summer wheat observed (%) (Summer wheat; [6]): 65%
Summer wheat observed (%) (Summer wheat; [12]): 50%

CCCCOC1CCCC2(C1)NC(=O)C(c1c(Cl)cc(C)cc1C1CC1)=C2O (stereo not shown) [Example I-1-a-12]
Summer wheat observed (%), 10 days after application (Summer wheat; 6.25 g of a.i./ha): 10%
Summer wheat observed (%), 10 days after application (Summer wheat; 12.5 g of a.i./ha): 40%
Summer wheat observed (%), 10 days after application (Summer wheat; 25 g of a.i./ha): 50%
Summer wheat observed (%) (Summer wheat; 10 days after application, 6.25 g of a.i./ha): 30%
Summer wheat observed (%) (Summer wheat; [5]): 50%
Summer wheat observed (%) (Summer wheat; [6]): 60%
Summer wheat observed (%) (Summer wheat; [7]): 60%
Summer wheat observed (%) (Summer wheat; 28 days after application, 6.25 g of a.i./ha): 5%
Summer wheat observed (%) (Summer wheat; [11]): 25%
Summer wheat observed (%) (Summer wheat; [12]): 65%
Summer wheat observed (%) (Summer wheat; [9]): 65%

CCOC1CCCC2(C1)NC(=O)C(c1c(Cl)cc(C)cc1C1CC1)=C2O (stereo not shown) [Example I-1-a-14]
Summer barley observed (%) (Summer barley; [11]): 20%
Summer barley observed (%) (Summer barley; [12]): 60%
Summer barley observed (%) (Summer barley; [9]): 70%
Summer wheat observed (%) (Summer wheat; [11]): 20%
Summer wheat observed (%) (Summer wheat; [12]): 50%
Summer wheat observed (%) (Summer wheat; [9]): 75%
Summer wheat observed (%) (Summer wheat; [10]): 85%

COC1CCC2(CC1)NC(=O)C(c1c(C3CC3)cc(C)cc1C1CC1)=C2O (stereo not shown) [Example I-1-a-15]
Kill (%) after 6 d +AS + RME in each case 1000 ppm ([3]; 4 ppm): 95%
Kill (%) after 6 d +AS 1000 ppm ([3]; 4 ppm): 15%
Kill (%) after 6 d +RME 1000 ppm ([3]; 4 ppm): 55%
Kill (%) after 6 d ([3]; 4 ppm): 5%
Kill (%) after 6 d +AS + RME in each case 1000 ppm ([3]; 20 ppm): 98%
Kill (%) after 6 d +AS 1000 ppm ([3]; 20 ppm): 95%
Kill (%) after 6 d +RME 1000 ppm ([3]; 20 ppm): 95%
Kill (%) after 6 d ([3]; 20 ppm): 95%

CCc1cc(C)cc(C2CC2)c1C1=C(O)C2CCCN2C1=O (stereo not shown) [Example I-1-a-18]
Summer barley observed (%) (Summer barley; [5]): 10%
Summer barley observed (%) (Summer barley; [6]): 15%
Summer barley observed (%) (Summer barley; [7]): 25%
Summer barley observed (%) (Summer barley; [8]): 35%
Summer barley observed (%) (Summer barley; [9]): 10%
Summer barley observed (%) (Summer barley; [10]): 20%
Summer wheat observed (%), 10 days after application (Summer wheat; 12.5 g of a.i./ha): 10%
Summer wheat observed (%), 10 days after application (Summer wheat; 25 g of a.i./ha): 15%
Summer wheat observed (%), 10 days after application (Summer wheat; 50 g of a.i./ha): 25%
Summer wheat observed (%), 10 days after application (Summer wheat; 100 g of a.i./ha): 40%

CCc1cc(C2CC2)cc(C2CC2)c1C1=C(O)C(C)(C)NC1=O [Example I-1-a-21]
Penetration after 24 h/% a.i. + AS (1 g/l) [4]: 1.1%
Penetration after 24 h/% a.i. + RME (1 g/l) [4]: 35.6%
Penetration after 24 h/% a.i. + RME (1 g/l) + AS (1 g/l) [4]: 56.9%

CCOC(=O)OC1=C(c2c(C3CC3)cc(C)cc2C2CC2)C(=O)NC1(C)C [Example I-1-c-13]
Summer barley observed (%) (Summer barley; [5]): 5%
Summer barley observed (%) (Summer barley; [6]): 20%
Summer barley observed (%) (Summer barley; [7]): 30%
Summer wheat observed (%) (Summer wheat; [5]): 20%
Summer wheat observed (%) (Summer wheat; [6]): 30%
Summer wheat observed (%) (Summer wheat; [7]): 40%

CCc1cc(C)cc(C2CC2)c1C1=C(O)[C@]2(CC[C@H](OC)CC2)OC1=O [Example I-2-a-1]
chromatographic logP [1]: 2.81

CCc1cc(C)cc(C2CC2)c1C1=C(O)[C@]2(CC[C@@H](OC)CC2)OC1=O [Example I-2-a-2]
chromatographic logP [1]: 3.07

Cc1cc(C2CC2)cc(C)c1C1=C(O)C2(CCOCC2)OC1=O [Example I-2-a-5]
logP [1]: 2.36

CCc1cc(C)cc(C2CC2)c1C1=C(OC(=O)C(C)(C)C)[C@]2(CC[C@H](OC)CC2)OC1=O [Example I-2-b-1]
chromatographic logP [1]: 5.03

CCOC(=O)C1(OC(=O)Cc2c(CC)cc(C)cc2C2CC2)CCC(OC)CC1 (stereo not shown) [III-1]
chromatographic logP [1]: 5.15
